Patent US9346832B2, “Gold complexes for use in the treatment of cancer” (University of Kwazulu-Natal, priority 2010, dated 2016)
Entries after “also recorded” stand apart in the source; their conditions may differ. Read-outs that look alike come from different tables or passages of the source.

What was measured:
[1] = system: 60 human cancer cell lines; assay: NCI-60 five-dose screen, mean cytotoxicity over 60 human cancer cell lines; format: cell-based
Method: The gold(III) complexes of this invention were screened by the National Cancer Institute (NCI, USA) against their panel of 60 different human cancer cell lines. These screens initially entail a one-dose test for the compound at a high concentration (10 μM; e.g. FIGS. 5, 6 and 7). Compounds with a good cytotoxicity profile in the one-dose screen are then subjected to a five-dose screen for the full panel of sixty human cancer cell lines (the so-called 5-dose NCI-60 screen). In the full five-dose screen, the compound concentration is varied in five doses from 10^−8 M to 10^−4 M in order to establish a dose-response function of percentage cell growth versus the concentration of the test agent. […] Similar data will shortly be available for compounds 1.1Y^1b and 1.5Y^1a as these derivatives are in 5-dose screens currently at the NCI.
The mean cytotoxicity data summarized in Scheme 7 were compiled over 60 human cancer cell lines from the NCI database. […] The dose-response curves for the bis(pyrrolide-imine) chelates of the invention are steeper, or harder, than those of all the compounds compared in Scheme 7.

calf thymus DNA = assay: Calf-thymus DNA titration (absorption hypochroism); format: binding; details: MA series: pH 7.0 phosphate buffer at 37° C.
Method: FIG. 20 is a graph of the titration of MA_AuPr (1.1a) with calf-thymus DNA in aqueous pH 7 phosphate buffer at 37° C.
The hypochroism of the absorption band of the complex at 383 nm was monitored as a function of added ctDNA. […] Ka is the equilibrium binding constant in M^−1, Ct is the total Au(III) complex concentration, and s is the binding site size.

plasma protein = assay: Plasma protein binding; format: in vitro ADME; details: LC-MS
Source text: (§1) This is why binding to DNA of the intact chelate occurs (FIGS. 14 and 20). However, it is noteworthy that hydrolysis of a Au(III)-Npyrrole bond is a reaction that may be catalyzed by enzymes in plasma and could account for the plasma instability of MA_AuPr.

[2] = system: HepG2 human hepatocellular carcinoma cells; assay: HepG2 cytotoxicity / cell health parameters; format: cell-based
Source text: The data for MA_AuPr in Scheme 22 are consistent with a cytotoxic compound capable of inducing apoptosis (programmed cell death) and, indeed, a compound that performs better than the control drug. […] Other cell health parameters which respond are a loss of total cells per well (indicating toxicity due to necrosis, apoptosis or a reduction in cellular proliferation), an increase in nuclear area (indicating necrosis or G2 cell cycle arrest), an increase in cytochrome c release (implying activation of a signalling cascade leading to apoptosis). The latter is particularly relevant as we may rule out cell death by necrosis in the case of MA_AuPr. The mechanism of action of the compound thus leads to cell cycle arrest in the G2 phase and the induction of apoptosis (highly desirable for an anticancer drug). […] Since the compound induces cytochrome c release, cytotoxicity involves apoptosis.

[3] = format: in vivo, mouse
Method: FIG. 22 is a plot showing the mouse survival data as a function of metallodrug dose for MA_AuPr.
A single dose of the compound was administered by injection over the first week followed by two injections per week per mouse for a total period of 50 days.

[4] = Hydrolysis in aqueous solution; format: physicochemical; details: aqueous / phosphate buffered aqueous solutions
Source text: as §1

[5] = system: 3LL tumor (Lewis lung carcinoma); assay: 3LL tumor growth in black mice

In the case of `C1=NCCCN=Cc2ccc[n]2[Au+][n]2cccc21.[Cl-]` [MA_AuPr, 2,2′-{propane-1,3-diylbis[nitrilo(E)methylylidene]}bis(pyrrol-1-ido)gold(III) chloride], the “fraction of cancer cell lines equivalently or more susceptible than to cisplatin” value ([1]; 60 human cancer cell lines) is reported as “ca. 25%”, the CC50 ([1]; mean over 60 human cancer cell lines, 50% cell death, read-out: LC50 (the source's name)) is reported as 49 µM and the GI50 ([1]; mean over 60 human cancer cell lines, 50% growth inhibition) is reported as 7 µM. For the same compound, the TGI (concentration for total growth inhibition) ([1]; mean over 60 human cancer cell lines, 100% (total) growth inhibition, read-out: TGI or IC50) was 20 µM, the “increase in concentration from 50% growth inhibition to 50% cell kill” value ([1]; on average over the full 60 cell lines) was 7 fold and the “growth inhibition activity relative to cisplatin, on average” value ([1]; plot of −log(GI50/M) versus cisplatin, FIG. 10) was 95%. The “Ka (calf thymus DNA)” value (calf thymus DNA) was 2.05(2) × 10^5 M^−1, the Plasma protein binding (plasma protein) was “did not bind to plasma protein; also recorded: No binding - drug” and the “Cytotoxicity (Hep-G2)” value [2] was “Strong positive”. The “Cytochrome C release MEC” value ([2]; HepG2) was 19 µM, the “DNA structure MEC” value ([2]; HepG2) was >19 µM and the “Mitochondrial mass MEC” value ([2]; HepG2) was 2.1 µM. For the same compound, the “Mitochondrial membrane potential MEC” value ([2]; HepG2) was 6.2 µM, the “Nuclear Area MEC” value ([2]; HepG2) was 6.2 µM and the “Cell Loss MEC” value ([2]; HepG2, minimum effective concentration) was <0.23 µM. It also gave an AC50 ([2]; HepG2, read-out: Cell Loss AC50) of 7.4 µM, an AC50 ([2]; HepG2, read-out: Cytochrome C release AC50) of 33 µM and an AC50 ([2]; HepG2, read-out: Membrane permeability AC50) of 16 µM. For the same compound, the AC50 ([2]; HepG2, read-out: Mitochondrial mass AC50) was 41 µM, the AC50 ([2]; HepG2, read-out: Mitochondrial membrane potential AC50) was > 500 µM and the AC50 ([2]; HepG2, read-out: Nuclear Area AC50) was 17 µM. The “health and weight of mice” value ([3]; 1 to 30 μmol/kg, 50 days) was “remained healthy and showed no abnormal weight changes”, the acute toxicity ([3]; mice, injection, 1 to 30 μmol/kg doses) was > 30 μmol/kg/week and the chronic toxicity ([3]; mice, two injections per week, 50 days) was > 60 μmol/kg/week. The hydrolysis [4] was “did not show hydrolysis”, the “in vivo performance relative to cisplatin” value ([5]; 3LL tumors, 20 days) was “about 43%” and the “reduction of 3LL tumor growth rate relative to control” value ([5]; after 20 days, 20 μmol/kg twice weekly) was “about 33%”.
